Molecules are shown by their SMILES. Marks after values point to notes of the source that are not given here.

One assay deals with Lean. The experiment in a line: Body weight and blood sugar in Lean mice (Example 7). It counts as in vivo, mouse. Particulars: for Body weight / Blood sugar level: in feed for a week (MAC 0.05%, AS-103 0.05%, AR-610 0.1%, AF 0.4%, AC 0.05%); for Body weight: control group 20.9 ± 0.8; for Blood sugar level: control group 211.2 ± 7.8; for Blood sugar level, change vs control group / Body weight, change vs control group: in feed for a week, contents as in table. On the procedure: [The procedure below names another variant; the source lists this variant under the same test.] (§1) Powered feed to which ascofuranone (AF) and ascochlorin (AC) as well as its derivatives, 4-0-methylascochlorin (MAC), 4-0-carboxymethylascochlorin (AS-6), and 4-0-nicotinoyl ascochlorin (AS-103) were added to feed at the proportions shown in the table, and the feed were given to db/db mice for a week and then analyzed for blood sugar decreasing effect (8 mice/group).

The test system of the next assay is Rat. In words: Glucogenesis in the liver. It counts as in vivo. The following applies: perorally. The source says:
Compounds of this series suppresses hepatic glucogenesis which is induced by administration of dexamethazon to a rat. For this reason, it antagonizes the action of glucocorticoid in vivo. The compound further has an effect of suppressing steroid diabetes characterized by polydipsia and polyurea and urine sugar excretion induced by administering cortisol to a rat. […] These facts strongly support that compounds of this series is useful in preventing and/or treating visceral fat syndrome.

Another assay has as its system Mouse. The experiment in a line: Appetite suppressing effect. Particulars: mouse fasted 48 hours; 1 to 2 mg/kg perorally one hour before feeding; feed given for 2 hours. It counts as in vivo.
In a further assay the test system is db/db mice. The experiment in a line: Blood sugar decreasing effect in db/db mice (Example 7). It counts as in vivo, mouse. Particulars: for Body weight / Blood sugar level: in feed for a week (MAC 0.05%, AS-103 0.05%, AR-610 0.1%, AF 0.4%, AC 0.05%); for Body weight: control group 44.6 ± 0.9; for Blood sugar level: control group 549.8 ± 21.8; for Blood sugar level, change vs control group / Body weight, change vs control group: in feed for a week, contents as in table. On the procedure:
as §1

A further assay concerns Anesthetized rat. In words: Blood pressure decreasing effect, acute test. It counts as in vivo. Particulars: 2 mg/kg perorally. On the procedure: Compounds of this series has an antihypertensive effect in various types of test animal models. The antihypertensive effect is confirmed not only in an acute test, in which arterial blood pressure of anesthetized rats and dogs is measured, but also in a chronic test using DOCA hypertensive rats, which are prepared by excising one of the kidneys and administering mineral corticoid and saline thereto, naturally-occurring hypertensive rats, which is an animal morbid model of essential hypertensive disease, and ob/ob mice, which are hereditary diabetic obese […].

Assay [1] deals with Mouse, rat, beagle dog, quail, DOCA hypertension rat. In words: Serum cholesterol decreasing effect. It counts as in vivo. The following applies: incl. rat and quail raised with hyperfat feed. On the procedure:
The quails are raised by giving a feed containing 2% cholesterol for 9 months to develop hypercholesteremia, and, in the case of the rats, mineral corticoid and saline are administered to allow them to develop heart and blood vessel disease and then hypercholesteremia.

Assay [2] has as its system SHR rat of high-incidence fat deposition group. In words: Fat deposition on the mesenteric artery. The following applies: perorally. It counts as in vivo.

As for `CC(/C=C/[C@@]1(C)[C@H](C)CCC(=O)[C@@H]1C)=C\Cc1c(O)c(Cl)c(C)c(C=O)c1O` [AC, ascochlorin], in the assay with Lean, the Body weight worked out at 16.1 ± 0.3 g; the Blood sugar level was found to be 184.8 ± 10.9 mg/dL; the “Blood sugar level, change vs control group” value (“Blood sugar level, change” below) is listed as −12.5%**; the “Body weight, change vs control group” value is on record as −23.0%**. Further, the “glucogenesis performed in the liver” value in the assay on Rat is “performed in the liver is suppressed”. For the same compound, the “amount of feed (appetite suppressing effect)” value in the assay with Mouse was “feed is suppressed in a dose dependent manner”. Moreover, in the assay on db/db mice, the Body weight worked out at 38.9 ± 1.8 g; the Blood sugar level was 262.1 ± 11.8 mg/dL; the “Blood sugar level, change” value was −52.3%**; the “Body weight, change vs control group” value is −12.8%**. In the assay on Anesthetized rat, the “decrease of average blood pressure of the carotid artery” value is listed as “decreases by 20 to 30 mmHg”. Besides, in assay [1], the “serum cholesterol decreasing effect” value was “carboxymethylascochlorin, and ascofuranone exhibits an effect of decreasing serum”.
Take `C/C(=C\Cc1c(O)c(Cl)c(C)c(C=O)c1O)CC/C=C(\C)[C@@H]1CC(=O)C(C)(C)O1` [AF, ascofuranone]: in the assay with Lean, the Body weight is reported as 21.8 ± 0.4 g; the Blood sugar level came to 161.1 ± 8.3 mg/dL; the “Blood sugar level, change” value is −23.7%**; the “Body weight, change vs control group” value is given as “ns”. Further, in the assay on db/db mice, the Body weight amounted to 44.8 ± 1.4 g; the Blood sugar level is reported as 385.5 ± 40.9 mg/dL; the “Blood sugar level, change” value is listed as −29.9%**; the “Body weight, change vs control group” value is “ns”. Also, in assay [2], the “fat deposition in a ring form on the mesenteric artery” value is listed as “mesenteric artery, disappearance of fat deposition is accelerated”. Also, the “serum cholesterol decreasing effect” value in assay [1] is “carboxymethylascochlorin, and ascofuranone exhibits an effect of decreasing serum”.
Consider `CC(/C=C/C1(C)C(C)CCC(=O)C1C)=C\Cc1c(O)c(C=O)c(C)c(Cl)c1OC(=O)c1cccnc1` (stereo not drawn) [AS-103, 4-0-nicotinoyl ascochlorin], for which, in the assay with Lean, the Body weight is 18.4 ± 0.3 g; the Blood sugar level turned out to be 181.8 ± 7.6 mg/dL; the “Blood sugar level, change” value is given as −13.9%*; the “Body weight, change vs control group” value was −12.0%**. Moreover, in the assay on db/db mice, the Body weight worked out at 42.0 ± 1.9 g; the Blood sugar level was found to be 331.3 ± 45.2 mg/dL; the “Blood sugar level, change” value is reported as −39.7%**; the “Body weight, change vs control group” value is reported as “ns”.

The values above are taken from patent US20050153870A1, “Medicinal composition for diagnosis, prevention, or therapy of multiple risk factor syndrome” (priority 2002, published 2005).
